The target of this test is Polθ protein (amino acids 2-2590) (Homo sapiens, UniProt O75417). In words: Polθ full length enzyme potency assay (PicoGreen). The conditions noted are these: full length N-His, C-term FLAG tagged Polθ, PicoGreen fluorescence, 12 point concentration response; for IC50: Polθ IC50 (nM).

Molecules are shown by their SMILES. pIC50: −log10 of the molar value. Where two headings read alike, the source gives them in different places.

From patent publication US12358886B2, “Heterocyclic compounds for use in the treatment of cancer” (Artios Pharma Limited, priority 2019, dated 2025) come the findings set out here.

Sequence of Polθ protein (amino acids 2-2590) (O75417 2-2590): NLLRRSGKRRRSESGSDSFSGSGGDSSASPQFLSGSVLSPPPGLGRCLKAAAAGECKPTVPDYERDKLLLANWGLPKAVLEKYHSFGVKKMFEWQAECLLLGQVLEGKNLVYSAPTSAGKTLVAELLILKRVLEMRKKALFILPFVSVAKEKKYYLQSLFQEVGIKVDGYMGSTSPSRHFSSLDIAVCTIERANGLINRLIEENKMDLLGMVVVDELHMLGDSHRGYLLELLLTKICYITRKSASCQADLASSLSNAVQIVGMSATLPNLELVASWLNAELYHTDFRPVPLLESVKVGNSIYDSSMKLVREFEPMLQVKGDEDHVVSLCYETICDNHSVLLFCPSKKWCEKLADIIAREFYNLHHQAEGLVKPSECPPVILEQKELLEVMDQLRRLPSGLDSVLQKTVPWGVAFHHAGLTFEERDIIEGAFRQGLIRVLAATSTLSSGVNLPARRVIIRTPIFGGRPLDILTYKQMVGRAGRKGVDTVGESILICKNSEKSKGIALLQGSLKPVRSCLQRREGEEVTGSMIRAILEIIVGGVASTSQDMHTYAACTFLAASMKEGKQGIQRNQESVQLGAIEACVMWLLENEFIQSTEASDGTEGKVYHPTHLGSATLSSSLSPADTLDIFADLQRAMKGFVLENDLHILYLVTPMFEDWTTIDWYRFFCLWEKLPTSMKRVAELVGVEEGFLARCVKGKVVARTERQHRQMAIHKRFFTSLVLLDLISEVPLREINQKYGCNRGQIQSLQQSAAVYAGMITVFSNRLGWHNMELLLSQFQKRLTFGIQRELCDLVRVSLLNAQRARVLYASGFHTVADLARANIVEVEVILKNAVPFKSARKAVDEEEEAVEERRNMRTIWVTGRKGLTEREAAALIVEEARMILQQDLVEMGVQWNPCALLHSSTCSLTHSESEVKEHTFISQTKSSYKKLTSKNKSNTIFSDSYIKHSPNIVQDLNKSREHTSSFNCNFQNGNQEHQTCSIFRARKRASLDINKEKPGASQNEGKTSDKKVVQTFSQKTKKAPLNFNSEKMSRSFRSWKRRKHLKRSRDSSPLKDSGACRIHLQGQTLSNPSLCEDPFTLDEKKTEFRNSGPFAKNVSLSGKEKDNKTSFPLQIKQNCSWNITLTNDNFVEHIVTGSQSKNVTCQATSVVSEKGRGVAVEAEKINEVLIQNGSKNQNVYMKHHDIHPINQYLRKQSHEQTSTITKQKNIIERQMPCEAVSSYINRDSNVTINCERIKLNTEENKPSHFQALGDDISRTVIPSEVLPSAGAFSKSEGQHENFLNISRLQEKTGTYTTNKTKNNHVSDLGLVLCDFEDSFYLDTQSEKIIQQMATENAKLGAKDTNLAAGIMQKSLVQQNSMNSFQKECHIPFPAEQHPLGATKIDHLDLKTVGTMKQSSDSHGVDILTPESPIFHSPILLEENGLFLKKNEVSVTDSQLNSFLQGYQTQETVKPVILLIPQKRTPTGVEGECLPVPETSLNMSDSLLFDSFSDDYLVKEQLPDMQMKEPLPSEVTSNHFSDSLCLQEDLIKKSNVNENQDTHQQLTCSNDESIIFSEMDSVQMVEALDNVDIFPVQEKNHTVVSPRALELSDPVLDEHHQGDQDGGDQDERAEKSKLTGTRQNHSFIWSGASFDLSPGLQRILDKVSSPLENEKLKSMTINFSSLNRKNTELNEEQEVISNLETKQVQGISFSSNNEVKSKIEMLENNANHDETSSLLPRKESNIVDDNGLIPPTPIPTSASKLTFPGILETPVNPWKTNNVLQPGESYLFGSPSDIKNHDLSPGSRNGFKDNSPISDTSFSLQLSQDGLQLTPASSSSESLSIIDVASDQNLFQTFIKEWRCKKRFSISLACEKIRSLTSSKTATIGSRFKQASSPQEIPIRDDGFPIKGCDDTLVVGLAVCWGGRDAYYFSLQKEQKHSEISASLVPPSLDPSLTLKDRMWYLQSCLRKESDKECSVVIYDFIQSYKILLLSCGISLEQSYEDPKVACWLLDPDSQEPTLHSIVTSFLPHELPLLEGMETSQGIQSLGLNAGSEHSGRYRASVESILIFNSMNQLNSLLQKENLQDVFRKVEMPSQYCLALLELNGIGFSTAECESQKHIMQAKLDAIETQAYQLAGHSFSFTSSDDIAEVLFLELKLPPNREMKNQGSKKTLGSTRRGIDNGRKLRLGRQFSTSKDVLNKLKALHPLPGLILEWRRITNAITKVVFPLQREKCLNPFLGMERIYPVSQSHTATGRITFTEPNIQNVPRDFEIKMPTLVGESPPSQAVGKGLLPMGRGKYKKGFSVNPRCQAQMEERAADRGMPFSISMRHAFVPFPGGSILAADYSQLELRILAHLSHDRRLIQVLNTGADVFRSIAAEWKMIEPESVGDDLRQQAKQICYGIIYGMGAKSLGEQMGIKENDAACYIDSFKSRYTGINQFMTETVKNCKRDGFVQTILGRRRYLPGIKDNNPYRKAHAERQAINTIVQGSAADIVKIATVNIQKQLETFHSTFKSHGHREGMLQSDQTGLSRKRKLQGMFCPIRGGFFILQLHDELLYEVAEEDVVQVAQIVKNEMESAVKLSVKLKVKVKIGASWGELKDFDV

For orientation: IC50 means the concentration at which inhibition is half-maximal. Low values mean greater potency in that assay, high ones weaker potency in that assay. Take `Cc1cc(C(F)(F)F)cc(N2C(=O)NC[C@H]2C(=O)N(C)c2ccc(F)c(Cl)c2F)n1` [Example 158, (S)—N-(3-Chloro-2,4-difluorophenyl)-N-methyl-3-(6-methyl-4-(trifluoromethyl)pyridin-2-yl)-2-oxoimidazolidine-4-carboxamide]: the IC50 was 2 nM.

For `Cc1cc(C(F)(F)F)cc(N2C(=O)OC[C@H]2C(=O)N(C)c2ccc3cc[nH]c3n2)n1` [Example 127, (S)—N-Methyl-3-(6-methyl-4-(trifluoromethyl)pyridin-2-yl)-2-oxo-N-(1H-pyrrolo[2,3-b]pyridin-6-yl)oxazolidine-4-carboxamide], the midpoint of inhibition, the IC50, lay at 15 nM.

In the case of `C=Cc1ccc(N(C)C(=O)[C@@H]2COC(=O)N2c2cc(C(F)(F)F)cc(C)n2)c(F)c1` [Example 111, (S)—N-(2-Fluoro-4-vinylphenyl)-N-methyl-3-(6-methyl-4-(trifluoromethyl)pyridin-2-yl)-2-oxooxazolidine-4-carboxamide], the IC50 was found to be 18 nM.

As for `Cc1cc(Br)cc(N2C(=O)OC[C@H]2C(=O)N(C)c2ccc(F)c(Cl)c2)n1` [Example 116, (S)-3-(4-Bromo-6-methylpyridin-2-yl)-N-(3-chloro-4-fluorophenyl)-N-methyl-2-oxooxazolidine-4-carboxamide], the IC50 is 71 nM.

Consider `Cc1cc(C(F)(F)F)cc(N2C(=O)[C@@H](O)[C@@H](O)[C@H]2C(=O)N(C)c2cc(F)cc(Cl)c2)n1` [Example 68, (2S,3S,4S)-N-(3-Chloro-5-fluoro-phenyl)-3,4-dihydroxy-N-methyl-1-(6-methyl-4-(trifluoromethyl)pyridin-2-yl)-5-oxopyrrolidine-2-carboxamide], for which the IC50 was determined as 31 nM.

Consider `COc1cc(N(C)C(=O)[C@@H]2COC(=O)N2c2cc(C(F)(F)F)cc(C)n2)ccc1Cl` [Example 91, (S)-N-(4-Chloro-3-methoxyphenyl)-N-methyl-3-(6-methyl-4-(trifluoromethyl)pyridin-2-yl)-2-oxooxazolidine-4-carboxamide], for which the IC50 amounted to 81 nM.

Compound `C=Cc1cc(C(F)(F)F)cc(N2C(=O)OC[C@H]2C(=O)N(C)c2ccc(F)c(Cl)c2)n1` [Example 114, (S)—N-(3-Chloro-4-fluorophenyl)-N-methyl-2-oxo-3-(4-(trifluoromethyl)-6-vinylpyridin-2-yl)oxazolidine-4-carboxamide] came in with a half-inhibitory concentration (IC50) of 46 nM.

In the case of `Cc1cccc(N(C)C(=O)[C@@H]2C[C@H](O)CN2c2nc(C)cc(C)c2C#N)c1` [Example 9, (2S,4S)-1-(3-Cyano-4,6-dimethylpyridin-2-yl)-4-hydroxy-N-methyl-N-(m-tolyl)pyrrolidine-2-carboxamide], the IC50 amounted to 87 nM.

The compound `CCN(C(=O)[C@@H]1[C@H](O)CCN1c1nc(C)cc(C(F)(F)F)c1C#N)c1ccc(F)c(Cl)c1` [Example 82, (2S,3R)—N-(3-Chloro-4-fluorophenyl)-1-(3-cyano-6-methyl-4-(trifluoromethyl)pyridin-2-yl)-N-ethyl-3-hydroxypyrrolidine-2-carboxamide] yielded an IC50 of 8 nM.

Turning to `CC(=O)N(C)C1CCN(CCN2C[C@@H](C(=O)N(C)c3ccc(F)c(Cl)c3F)N(c3cc(C(F)(F)F)cc(C)n3)C2=O)C1` (stereo partly drawn) [Example 207, (4S)-N-(3-Chloro-2,4-difluoro-phenyl)-N-methyl-3-(6-methyl-4-(trifluoromethyl)pyridin-2-yl)-1-(2-(3-(N-methylacetamido)-pyrrolidin-1-yl)ethyl)-2-oxoimidazolidine-4-carboxamide], inhibition was half-maximal at 7 nM (IC50).

Consider `Cc1cc(C(F)(F)F)cc(N2C(=O)OC[C@H]2C(=O)N(C)c2ccc(C3CC3)c(Cl)c2)n1` [Example 173, (S)—N-(3-Chloro-4-cyclopropylphenyl)-N-methyl-3-(6-methyl-4-(trifluoromethyl)pyridin-2-yl)-2-oxooxazolidine-4-carboxamide], for which inhibition was half-maximal at 13 nM (IC50).

`CCN(C(=O)[C@@H]1CNC(=O)N1c1cc(C(F)(F)F)cc(C)n1)c1ccc(F)c(Cl)c1` [Example 157, (S)—N-(3-Chloro-4-fluorophenyl)-N-ethyl-3-(6-methyl-4-(trifluoromethyl)pyridin-2-yl)-2-oxoimidazolidine-4-carboxamide] had a 50% inhibitory concentration (IC50) of 32 nM.

The term pIC50 denotes −log10 of the IC50, conventionally taken in molar units. For the compound `CCN(C(=O)[C@@H]1[C@H](O)[C@H](O)C(=O)N1c1cc(C(F)(F)F)cc(C)n1)c1ccc(F)c(Cl)c1` [Example 66, (2S,3S,4S)-N-(3-Chloro-4-fluoro-phenyl)-N-ethyl-3,4-dihydroxy-1-(6-methyl-4-(trifluoromethyl)pyridin-2-yl)-5-oxopyrrolidine-2-carboxamide], the pIC50 (read-out: Polθ IC50) was 7.70.

`Cc1cc(C(F)(F)F)c(C#N)c(N2CCC[C@H]2C(=O)N(C)c2ccc3c(n2)N(C)CCO3)n1` [Example 245, (S)-1-(3-Cyano-6-methyl-4-(trifluoromethyl)pyridin-2-yl)-N-methyl-N-(4-methyl-3,4-dihydro-2H-pyrido[3,2-b][1,4]oxazin-6-yl)pyrrolidine-2-carboxamide]: half-maximal inhibition (IC50) was put at 74 nM.

Consider `Cc1cc(C(F)(F)F)cc(N2C(=O)N(CC3(O)CCN(C)C3)C[C@H]2C(=O)N(C)c2ccc(F)c(Cl)c2F)n1` (stereo partly drawn) [Example 223, (4S)—N-(3-Chloro-2,4-difluorophenyl)-1-((3-hydroxy-1-methylpyrrolidin-3-yl)methyl)-N-methyl-3-(6-methyl-4-(trifluoromethyl)pyridin-2-yl)-2-oxoimidazolidine-4-carboxamide], for which the IC50 stood at 8 nM.

In turn, `Cc1cc(C(F)(F)F)cc(N2C(=O)N(CC3CN(C)C(=O)O3)C[C@H]2C(=O)N(C)c2ccc(F)c(Cl)c2F)n1` (single isomer, unassigned; isomer 2) [Example 230] registered an IC50 of 16 nM.

`Cc1cc(C(F)(F)F)cc(N2C(=O)N(CC3CNCCO3)C[C@H]2C(=O)N(C)c2ccc(F)c(Cl)c2F)n1` (stereo partly drawn) [Example 218, (4S)—N-(3-Chloro-2,4-difluorophenyl)-N-methyl-3-(6-methyl-4-(trifluoromethyl)pyridin-2-yl)-1-(morpholin-2-ylmethyl)-2-oxoimidazolidine-4-carboxamide] gave an IC50 of 16 nM.

With `Cc1cccc(N(C)C(=O)[C@@H]2C[C@H](O)CN2c2cc(C(C)C)cc(C)n2)c1` [Example 28, (2S,4S)-4-Hydroxy-1-(4-isopropyl-6-methylpyridin-2-yl)-N-methyl-N-(m-tolyl)pyrrolidine-2-carboxamide], the IC50 came to 48 nM.

In the case of `Cc1cc(C(F)(F)F)cc(N2C(=O)N(CCS(=O)(=O)N(C)C)C[C@H]2C(=O)N(C)c2ccc(F)c(Cl)c2)n1` [Example 181, (S)—N-(3-Chloro-4-fluorophenyl)-1-(2-(N,N-dimethylsulfamoyl)ethyl)-N-methyl-3-(6-methyl-4-(trifluoromethyl)pyridin-2-yl)-2-oxoimidazolidine-4-carboxamide], half-maximal inhibition (IC50) required 45 nM.

On to `Cc1cc(C(F)(F)F)cc(N2C(=O)N(CC3CNC3)C[C@H]2C(=O)N(C)c2ccc(F)c(Cl)c2F)n1` [Example 188, (S)-1-(Azetidin-3-ylmethyl)-N-(3-chloro-2,4-difluorophenyl)-N-methyl-3-(6-methyl-4-(trifluoromethyl)pyridin-2-yl)-2-oxoimidazolidine-4-carboxamide], for which the IC50 came out at 18 nM.

As for `Cc1cc(C(F)(F)F)cc(N2C(=O)[C@@H](O)[C@@H](O)[C@H]2C(=O)N(C)c2ccc3cc[nH]c3n2)n1` [Example 166, (2S,3S,4S)-3,4-Dihydroxy-N-methyl-1-(6-methyl-4-(trifluoromethyl)pyridin-2-yl)-5-oxo-N-(1H-pyrrolo[2,3-b]pyridin-6-yl)pyrrolidine-2-carboxamide], the concentration for half-maximal inhibition (IC50) stood at 7 nM.

On to `Cc1cc(C(F)(F)F)cc(N2C(=O)N(CCN3CC[C@H](F)C3)C[C@H]2C(=O)N(C)c2ccc(F)c(Cl)c2F)n1` [Example 205, (S)-N-(3-Chloro-2,4-difluorophenyl)-1-(2-((S)-3-fluoropyrrolidin-1-yl)ethyl)-N-methyl-3-(6-methyl-4-(trifluoromethyl)pyridin-2-yl)-2-oxoimidazolidine-4-carboxamide], for which half-maximal inhibition (IC50) required 6 nM.

The compound `Cc1cc(C(F)(F)F)cc(N2C(=O)NC[C@H]2C(=O)N(C)c2ccc3c(C)n[nH]c3c2)n1` [Example 238, (S)—N-Methyl-N-(3-methyl-1H-indazol-6-yl)-3-(6-methyl-4-(trifluoromethyl)pyridin-2-yl)-2-oxoimidazolidine-4-carboxamide] gave an IC50 of 28 nM.

For `Cc1cc(C)c(C#N)c(N2C[C@@H](O)C[C@H]2C(=O)N(C)c2ccc(F)c(CF)c2)n1` [Example 14, (2S,4S)-1-(3-Cyano-4,6-dimethylpyridin-2-yl)-N-(4-fluoro-3-(fluoromethyl)phenyl)-4-hydroxy-N-methylpyrrolidine-2-carboxamide], the IC50 came out at 415 nM.

For `Cc1cc(C(F)(F)F)cc(N2C(=O)N(CCN3CCC3CO)C[C@H]2C(=O)N(C)c2ccc(F)c(Cl)c2F)n1` (stereo partly drawn) [Example 203, (4S)-N-(3-Chloro-2,4-difluoro-phenyl)-1-(2-(2-(hydroxymethyl)-azetidin-1-yl)-ethyl)-N-methyl-3-(6-methyl-4-(trifluoromethyl)pyridin-2-yl)-2-oxoimidazolidine-4-carboxamide], the half-maximal inhibitory concentration (IC50) came to 10 nM.

Compound `Cc1cc(C(F)(F)F)cc(N2C(=O)OC[C@H]2C(=O)N(C)c2cccc(N)n2)n1` [Example 175, (S)—N-(6-Aminopyridin-2-yl)-N-methyl-3-(6-methyl-4-(trifluoromethyl)pyridin-2-yl)-2-oxooxazolidine-4-carboxamide] registered an IC50 of 519 nM.

The compound `Cc1cc(C(F)(F)F)cc(N2C(=O)N(CCN3CC[C@H](O)C3)C[C@H]2C(=O)N(C)c2ccc(F)c(Cl)c2)n1` [Example 196, (S)-N-(3-Chloro-4-fluorophenyl)-1-(2-((S)-3-hydroxypyrrolidin-1-yl)ethyl)-N-methyl-3-(6-methyl-4-(trifluoromethyl)pyridin-2-yl)-2-oxoimidazolidine-4-carboxamide] displayed a concentration for half-maximal inhibition (IC50) of 24 nM.
